# Measured values reported in patent publication US20210338728A1, “METHODS AND COMPOSITIONS FOR THE EXPANSION AND USE OF ALLOGENEIC GAMMA/DELTA-T CELLS” (Phosphogam, Inc., priority 2018, published 2021).
# System: γδ-T cells
# Assay: Ex vivo expansion of human γδ-T cells from healthy donor PBMC with C-HDMPP and IL-2, flow cytometry at day 21
# Assay type: cell-based
# Source text: Peripheral blood mononuclear cells (PBMC) were isolated from peripheral blood obtained by venipuncture from a healthy individual. Fresh blood was collected using standard aseptic technique. PBMC were isolated utilizing a standard density gradient centrifugation method. PBMC were washed in PBS, then resuspended in complete RPMI-1640 supplemented with 10% characterized fetal bovine serum and PCN+streptomycin.
# Cell cultures were initiated by seeding PBMC into tissue culture flasks to which recombinant human IL-2 was added. γδ-T cell expansion was initiated by the addition of C-HDMPP. Cultures were maintained at 37° C., 5% CO2 in incubators situated within a BSL2 containment environment. Fresh media was added as needed to keep cell concentration at approximately 1×10^6 cells/ml. Human IL-2 was added every 5 days. Cultures were maintained for 21 days at which time they were analyzed by flow cytometry. […] At 100 nM C-HDMPP the cultures were ≥96% pure γδ-T cells with viability ≥96%.
# [1] = 100 nM C-HDMPP, 21 days of culture with IL-2, flow cytometry
smiles,measurement,setting,value
C/C(=C\CCP(=O)(O)OP(=O)(O)O)CO [C-HDMPP],purity of γδ-T cells in the cultures,[1],≥ 96%
same,viability of the cultures,[1],≥ 96%
same,γδ-T cell growth (expansion) versus concentration,"nanomolar concentrations, 21 days, FIG. 1",can be titrated to promote optimal γδ-T cell growth while avoiding overstimulation
